# Columns and labels:
# [1] = Toxicity in xenograft-bearing nude mice (body weight, pathology); assay type: in vivo
# Protocol: 10-HCPT was dissolved in propylene glycol and treatment began when the tumor size reached 3-5 mm. 10-HCPT was administered via p.o. once per two or four days at doses of 1-7.5 mg/kg (volume of injection: 0.1 mL/20 g of body weight), respectively. The control group received propylene glycol vehicle once per two days. Tumor size and body weight were monitored twice a week throughout the experiment. The tumor size was measured using a vernier caliper. Tumor volume (V) was calculated according to the formula: V (mm^3)=0.4AB^2, where A and B are the longest diameter and the shortest diameter, respectively. At the end of experiment, all mice were sacrificed by CO2 gas. Tumors, livers, kidneys, and lungs were collected, fixed, embedded and stained with hematoxylin and eosin for pathological analysis.
# [2] = tested on: cell cycle regulatory proteins in Colo-205 cells; assay: Western blotting of cell cycle regulatory proteins; assay type: cell-based, human; conditions: Colo-205, 3 μM, 48 hr
# Description: The progression of the cell cycle is promoted by various CDKs binding with their respective cyclin partners and inhibited by CDK inhibitors such as p21 and p27. In general, CDK2 in association with cyclin E regulates the G1/S transition, and CDK1 in concert with type-A and -B cyclins controls the G2/M transition. Both cell cycle inhibitory proteins p21 and p27 block cell cycle progression at the G1/S as well as the G2/M transitions of cell cycle. […] To confirm this speculation, we analyzed the expressions of several cell cycle regulatory proteins by means of Western blotting assay as described below.
# Colo-205 cells were cultured in Dulbecco's modified Eagle Medium (DMEM) supplemented with 10% fetal bovine serum (FBS) at 37° C. in a 5% CO2 atmosphere. Cells were seeded in 6-well plate and incubated with 3 μM of 10-HCPT. After 48 hr, the treated cells were washed twice with phosphate-buffered saline (PBS), flash frozen in liquid nitrogen, and stored at −80° C. The harvested cells were lysed in ice-cold report lysis buffer (Promega). After cleaning the resulted lysates by centrifugation, protein in the clear lysate was quantified by Dc protein assay kit (Bio-Rad). 15 μg of lysate protein were resolved by 10% SDS-PAGE, transferred onto a polyvinylidene difluoride membrane (PVDF membrane, Amersham Biosciences), and immunoblotted with antibodies against followed cellular proteins: DNA topoisomerase I, p53, p27, phosphorylated p27 (Santa Cruz Biotechnology), cyclin E, CDK2 (BD Pharningen), PCNA, p21 (Upstate), and α-tubulin (Sigma). Protein content was visualized with BM Chemiluminescence Blotting Kit (Roche Molecular Biochemicals). The blots were exposed to X-ray film (Fuji) for various times.
# [3] = cited from earlier work
# Colo-205 cells [4] = assay: Cell cycle distribution by propidium iodide staining and flow cytometry; assay type: cell-based, human; conditions: various concentrations, 48 hrs
# Protocol: We further investigated if the suppression of cell growth induced by 10-HCPT on Colo-205 was due to either cell cycle arrest or cell death. The Colo-205 cells were treated with various concentrations of 10-HCPT for 48 hrs and analyzed by propidium iodide staining and flow cytometry as described below.
# After treatment with 10-HCPT, cells were trypsinized and resuspended in 70% ethanol. The cells were incubated on ice for at least 1 hr and resuspended in 1 mL of cell cycle assay buffer (0.38 mM sodium citrate, 0.5 mg/mL RNase A, and 0.01 mg/mL propidium iodide) at a concentration of 5×10^5 cells/mL. Samples were stored in the dark at 4° C. until cell cycle analysis, which was carried out by use of a flow cytometer and ModFit LT 2.0 software (Verity Software, Topsham, Me.).
# A FACScan flow cytometer (Becton Dickinson, Bedford, Mass.) equipped with a 488-nm argon laser was used for analysis of cellular function by flow cytometry. Forward and side scatters were used to establish size gates and exclude cellular debris from the analysis. The excitation wavelength was set at 488 nm. The observation wavelength of 530 nm was chosen for green fluorescence and 585 nm for red fluorescence and the intensities of emitted fluorescence were collected on FL1 and FL2 channels, respectively. In each measurement, a minimum of 20,000 cells was analyzed. Data were acquired and analyzed using the Cell Quest software (Becton Dickinson). Relative change in the mean fluorescence intensity was calculated as the ratio between mean fluorescence intensity in the channel of the treated cells and that of the control.
# [5] = tested on: human colon cancer HT-29 cells; assay: MTT assay of cell growth, HT-29; assay type: cell-based; conditions: HT-29, days 1-3, MTT
# Protocol: Two human colon cancer cell lines, Colo-205 (ATCC accession No. CCL-222) and HT-29 (ATCC accession No. HTB-38), were used in this study. Cells were treated with 0.2, 0.76, 1.52, 7.62, 15.24, 22.87, 30.49, 38.11, 45.73 or 53.35 μM 10-HCPT or CPT-11 for 1-3 days, and the relative number of the viable cells was determined by MTT assay as described below.
# Cells were seeded in a 24-well cell culture cluster (Costar, Cambridge, Mass.) at a density of 1×10^6 cells per mL and cultured overnight prior to drug treatment. After 10-HCPT or CPT-11 treatment for 3 days, the medium was discarded and replaced with an equal volume (0.5 mL) of fresh medium containing 0.456 mg/mL 3-[4,5-dimethylthiazol-2-yl]-2,5-diphenyl-tetrazolium bromide (MTT; Sigma Chemical Company) and incubated for 2 hours at 37° C. in the dark. The medium was discarded, and cells were then combined with […] dimethyl sulfoxide (Sigma Chemical Company) to dissolve the formazan produced. Cell viability was determined according to the calorimetric comparison by reading optical density (OD) values from a microplate reader (Spectra Max 250; Spectra Diode Laboratories, CA) at an absorption wavelength of 570 nm.
# Colo-205 cells [6] = assay: Viable cell number by trypan blue exclusion assay; assay type: cell-based, human; conditions: 5, 10, 15 or 20 nM, 24 to 120 hr, vs untreated cells
# Protocol: To investigate the effect of 10-HCPT on the growth of Colo-205 cell line, the cells were treated with a series of dosages of 10-HCPT and harvested at different time points. The cell numbers were determined by trypan blue exclusion assay as described below.
# Colo-205 cells (5×10^5) were seeded in 25T flasks overnight and then treated without (control) and with 5, 10, 15, or 20 nM of 10-HCPT, respectively. After treatment for 24 to 120 hr, cells were harvested by trypsin-EDTA and then centrifuged at 1500 rpm for 5 min at 4° C. The cell pellet was resuspended in culture medium containing 0.04% trypan blue and the viable cells were enumerated by a hemocytometer.
# [7] = previous pharmacokinetic studies
structure (smiles),measurement,setting,value
"CC[C@@]1(O)C(=O)OCc2c1cc1n(c2=O)Cc2cc3cc(O)ccc3nc2-1 [10-HCPT, 10-hydroxy-camptothecin]",average body weight,"[1]; 7.5 mg/kg/2 days-treated group, end of study",slightly recovered
same,acute toxicity,"[1]; 1-7.5 mg/kg, p.o., once per two or four days, nude mice",no obvious acute toxicity
same,body weight,[1]; all treated groups except the 7.5 mg/kg/2 days-treated group,No significant reduction in body weight
same,"tissue damage in liver, lung and kidney",[1]; tissue slices stained with hematoxylin and eosin,no tissue damage was observed
same,CDK2 expression,[2],increasing expression
same,PCNA protein level,[2],no effect
same,amount of p27,[2],decreasing amount
same,cdc25c expression,[2],enhanced
same,cyclin B1 expression,[2],enhanced
same,cyclin E expression,[2],increasing expression
same,p21 protein level,[2],dramatically increased
same,toxicity with i.v. administration,[3]; i.v.,Dose-dependent toxicity was observed
same,distribution half-life,[3]; [7],short
same,elimination half-life,[3]; [7],prolonged
same,cell populations in G0/G1 phase,Colo-205 cells [4],decreasing
same,cell populations in G2/M phase,Colo-205 cells [4],induced dramatically the increasing
same,population in sub G0/G1 phase,Colo-205 cells [4],increasing population
same,S phase of cell cycle,Colo-205 cells [4]; vs untreated,no significant differences
same,concentration at which complete growth inhibition was observed,[5],0.5 µM
same,effect on cell number increase,Colo-205 cells [6],suppression of cell number increasing in dose-dependent manner
